From article PMC7016952, “Characterization of the Menin-MLL Interaction as Therapeutic Cancer Target” (Cancers, 2020)

What was measured:
[1] = cited from earlier work
[2] = target: CYP 2C8 (Homo sapiens, UniProt P10632); settings: cited from earlier work
[3] = system: RKO xenograft; experiment: RKO xenograft efficacy; assay type: in vivo, mice
Protocol: Tumor cells were injected subcutaneously into the flanks of 6- to 9-week old animals. Efficacy studies in xenograft models were performed at Bayer or EPO GmbH (Berlin-Buch, Germany) using NMRI nu/nu, SCID, BALB/c Nude female mice or SCID male mice (VCaP tumors). All animal studies were conducted in accordance with the animal welfare laws and were approved by the State Office for Health and Social Affairs Berlin (LAGeSo). Experiments were run under the animal license B3600a0007. Compound treatment started at a predefined tumor size or burden or at a predefined day after cell inoculation. BAY-155 was administered orally (p.o.) at various doses and regorafenib, tamoxifen and enzalutamide (resuspended in PEG400/H2O 6/4 or PEG400/EtOH 9/1) were used as control treatment for RKO, MCF7 and VCaP xenografts, respectively. Subcutaneous tumor volumes were determined by caliper measurement.

[4] = target: T1, menin (Homo sapiens, UniProt O00255); experiment: Isothermal Titration Calorimetry (ITC) on purified menin; assay type: binding
T1 construct: purified menin (1–615 with GST-tag cleaved as described above); GST (TEV cleavable) (N, cleaved yes); made in house; host or cells: E. coli BL21 (DE3)
T1 sequence (O00255 1-615 isoform O00255-1): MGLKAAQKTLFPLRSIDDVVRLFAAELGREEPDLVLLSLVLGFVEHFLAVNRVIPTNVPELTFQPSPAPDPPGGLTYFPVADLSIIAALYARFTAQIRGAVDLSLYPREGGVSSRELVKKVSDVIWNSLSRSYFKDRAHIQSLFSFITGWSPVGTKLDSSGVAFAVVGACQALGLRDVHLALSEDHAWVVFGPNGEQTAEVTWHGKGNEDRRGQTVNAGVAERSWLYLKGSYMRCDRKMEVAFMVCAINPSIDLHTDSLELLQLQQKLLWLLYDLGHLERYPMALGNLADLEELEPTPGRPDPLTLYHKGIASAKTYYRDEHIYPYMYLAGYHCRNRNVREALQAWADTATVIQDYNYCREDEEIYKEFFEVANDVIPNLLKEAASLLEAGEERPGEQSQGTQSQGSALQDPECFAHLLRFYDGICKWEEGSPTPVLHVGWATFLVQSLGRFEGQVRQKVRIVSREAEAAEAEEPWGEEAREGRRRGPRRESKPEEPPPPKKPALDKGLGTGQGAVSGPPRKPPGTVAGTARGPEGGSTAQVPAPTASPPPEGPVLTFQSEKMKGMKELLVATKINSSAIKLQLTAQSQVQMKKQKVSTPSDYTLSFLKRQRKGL
Protocol: Cloning of expression vectors for recombinant menin was performed as follows. […] Proteins were expressed in E. coli BL21 (DE3) following 0.1 mM IPTG induction at 17 °C overnight. For purification, cell pellets were resuspended in buffer A (50 mM Tris pH 7.5, 300 mM NaCl, 2 mM DTT). Cells were lysed using a high pressure Microfluidics apparatus and the cell debris pelleted by centrifugation. The supernatant was applied to a GST column (GE Healthcare, Chicago, IL, USA), washed with two column volumes of washing buffer A and eluted with Buffer B (Buffer A plus 15 mM reduced glutathione). If necessary, the purification tag was cleaved off with the addition of His-TEV protease (1:20 mass ratio) during overnight incubation in buffer A. His-TEV was removed by IMAC column rebinding and final protein purification of either GST-cleaved or uncleaved menin-1 was performed by size exclusion chromatography using a HiLoad 16/60 Superdex 200 (GE Healthcare) column in buffer C (Buffer A but 50 mM NACl).
The compound was dissolved in 100% DMSO to a concentration of 10 mM and subsequently diluted to a final concentration of 5 µM in ITC Buffer. Isothermal Titration Calorimetry (ITC) was performed at 25 °C in a Microcal PEAQ-ITC (Malvern Panalytical). […] Reference Power was set to 6 μcal/s. Data were collected on high feedback mode. Analysis was performed with a single binding site model in the Microcal PEAQ-ITC Analysis Software (Malvern Panalytical).

[5] = target: CYP 3A4 (Homo sapiens, UniProt P08684); settings: cited from earlier work
[6] = system: AR signaling pathway genes in VCaP tumor samples; experiment: Ex vivo gene expression in VCaP xenografts; parameters: species or system mice; settings: 52 days of treatment
Protocol: Total RNA was isolated using RNeasy-Plus Mini kit (Qiagen, Hilden, Germany). RNA (1 μg) was reverse transcribed using SuperScript III First-Strand Synthesis SuperMix (Life Technologies) and the generated cDNA was analyzed with commercial primers (Supplementary Materials Table S1) by qRT-PCR using TaqMan Fast Advanced Master Mix (Life Technologies). For the RNA-seq study, ZR-75-1, BT474, PANC-1, MiaPaCa-2, 22RV1, JMSU-1, DLD-1, SW1463, LoVo and G401 cells were treated with 5 µM BAY-155 or DMSO for 48 h prior to RNA extraction. After 48 h of 5 µM BAY-155 or DMSO treatment, MCF7, VCaP and LNCaP cells were stimulated for further 12 h with 0.1 nM of E2 (ß-Estradiol) or 1 nM R1881, respectively. MCF7, VCaP and LNCaP cells were cultured in starvation medium (containing 5 µM BAY-155 or DMSO) 6 h before stimulation. RNA was isolated using RNeasy-Plus Mini kit (Qiagen). The purified RNA was used for library preparation (Illumina, San Diego, CA, USA. TruSeq Stranded mRNA Kit) and the generated libraries were sequenced (Illumina, HiSeq2500 HTv4, SR, dual-indexing, 50 cycles).
Tumors were harvested, dissociated and total RNA was extracted using the TissueLyser (Qiagen, Hilden, Germany) together with RNeasy-Plus Mini kit according to the manufacturer protocol.

Sequence of CYP 2C8 (P10632 whole entry): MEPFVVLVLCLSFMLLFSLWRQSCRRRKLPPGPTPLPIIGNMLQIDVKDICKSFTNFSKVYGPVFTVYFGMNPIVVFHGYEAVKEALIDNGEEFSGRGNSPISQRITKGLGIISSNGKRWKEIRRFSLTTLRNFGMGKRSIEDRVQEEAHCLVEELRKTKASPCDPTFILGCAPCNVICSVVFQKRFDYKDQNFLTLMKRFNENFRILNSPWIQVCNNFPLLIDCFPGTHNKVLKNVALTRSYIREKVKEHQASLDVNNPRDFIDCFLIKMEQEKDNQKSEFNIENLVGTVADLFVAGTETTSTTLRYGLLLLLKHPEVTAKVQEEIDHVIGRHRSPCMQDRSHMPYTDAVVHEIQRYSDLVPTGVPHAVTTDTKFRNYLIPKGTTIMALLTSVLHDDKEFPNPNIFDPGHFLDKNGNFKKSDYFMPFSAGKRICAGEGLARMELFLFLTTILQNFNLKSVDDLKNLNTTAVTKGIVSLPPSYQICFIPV
Sequence of CYP 3A4 (P08684 whole entry): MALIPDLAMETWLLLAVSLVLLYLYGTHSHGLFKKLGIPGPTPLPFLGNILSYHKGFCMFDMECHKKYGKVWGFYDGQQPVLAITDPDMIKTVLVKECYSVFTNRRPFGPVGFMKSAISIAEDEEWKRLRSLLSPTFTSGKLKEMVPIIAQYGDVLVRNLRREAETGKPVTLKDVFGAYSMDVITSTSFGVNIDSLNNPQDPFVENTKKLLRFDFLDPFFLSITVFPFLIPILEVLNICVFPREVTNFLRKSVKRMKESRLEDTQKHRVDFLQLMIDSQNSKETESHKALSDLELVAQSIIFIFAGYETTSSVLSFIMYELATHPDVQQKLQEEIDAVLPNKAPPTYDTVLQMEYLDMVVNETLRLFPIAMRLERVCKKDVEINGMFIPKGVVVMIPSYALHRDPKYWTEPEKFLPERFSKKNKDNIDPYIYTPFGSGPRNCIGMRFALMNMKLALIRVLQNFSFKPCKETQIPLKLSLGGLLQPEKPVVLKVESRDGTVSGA

## Cc1c(CN2CCC3(CC2)CN(c2ncnc4sc(CC(F)(F)F)cc24)C3)ccc2c1cc(C#N)n2CC(N)=O [BAY-155]
[1]
  in vivo CL blood Rat: 18.3 mL/min/kg
  in vivo F Rat: 15.3%
[2]
  IC50: > 20 µM
[3]
  tumor volume and weight (anti-growth effects): no significant anti-growth effects
[4]
  Kd: 0.075 µM
[4]; ITC
  stoichiometry factor N: 1.06
[5]
  IC50: > 20 µM
[6]
  FKBP5 and TMPRSS2 expression ex vivo: no significant changes
